Experimental findings from ChEMBL document CHEMBL2417377, “Hit-to-lead optimization and kinase selectivity of imidazo[1,2-a]quinoxalin-4-amine derived JNK1 inhibitors” (Bioorg Med Chem Lett, 2013) are described below.

Common to all, as to conditions: PC-3
Test [1] addresses Cyclin-dependent kinase 10 (Homo sapiens) (UniProt Q15131). The test is described as follows: Inhibition of CDK10 in human PC3 cell lysates at 30 uM using desthiobiotin-tagged ATP probe AX9989 followed by trypsinization by LC/MS analysis.
The target in test [2] is Cyclin-dependent kinase 16 (Homo sapiens) (UniProt Q00536). The test is described as follows: Inhibition of PCTAIRE1 in human PC3 cell lysates at 30 uM using desthiobiotin-tagged ATP probe AX9989 followed by trypsinization by LC/MS analysis.
Cyclin-dependent kinase 16 (Homo sapiens), sequence (Q00536 whole entry): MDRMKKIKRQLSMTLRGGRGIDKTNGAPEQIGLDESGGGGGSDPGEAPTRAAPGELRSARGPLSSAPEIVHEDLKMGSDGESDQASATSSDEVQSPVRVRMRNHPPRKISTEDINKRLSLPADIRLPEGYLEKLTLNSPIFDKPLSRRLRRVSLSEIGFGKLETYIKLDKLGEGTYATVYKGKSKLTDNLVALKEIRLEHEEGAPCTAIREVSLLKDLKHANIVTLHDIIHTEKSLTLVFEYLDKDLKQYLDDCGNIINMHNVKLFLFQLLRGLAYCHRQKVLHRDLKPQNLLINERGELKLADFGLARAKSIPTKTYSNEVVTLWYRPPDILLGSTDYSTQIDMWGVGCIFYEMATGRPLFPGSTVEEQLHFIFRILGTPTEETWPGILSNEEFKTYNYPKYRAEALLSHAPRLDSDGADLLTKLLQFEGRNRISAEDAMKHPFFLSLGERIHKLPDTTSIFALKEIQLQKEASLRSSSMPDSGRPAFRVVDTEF
Test [3] has as its target T1, Eukaryotic translation initiation factor 2-alpha kinase 3 (Homo sapiens) (UniProt Q9NZJ5).
T1 sequence (whole entry): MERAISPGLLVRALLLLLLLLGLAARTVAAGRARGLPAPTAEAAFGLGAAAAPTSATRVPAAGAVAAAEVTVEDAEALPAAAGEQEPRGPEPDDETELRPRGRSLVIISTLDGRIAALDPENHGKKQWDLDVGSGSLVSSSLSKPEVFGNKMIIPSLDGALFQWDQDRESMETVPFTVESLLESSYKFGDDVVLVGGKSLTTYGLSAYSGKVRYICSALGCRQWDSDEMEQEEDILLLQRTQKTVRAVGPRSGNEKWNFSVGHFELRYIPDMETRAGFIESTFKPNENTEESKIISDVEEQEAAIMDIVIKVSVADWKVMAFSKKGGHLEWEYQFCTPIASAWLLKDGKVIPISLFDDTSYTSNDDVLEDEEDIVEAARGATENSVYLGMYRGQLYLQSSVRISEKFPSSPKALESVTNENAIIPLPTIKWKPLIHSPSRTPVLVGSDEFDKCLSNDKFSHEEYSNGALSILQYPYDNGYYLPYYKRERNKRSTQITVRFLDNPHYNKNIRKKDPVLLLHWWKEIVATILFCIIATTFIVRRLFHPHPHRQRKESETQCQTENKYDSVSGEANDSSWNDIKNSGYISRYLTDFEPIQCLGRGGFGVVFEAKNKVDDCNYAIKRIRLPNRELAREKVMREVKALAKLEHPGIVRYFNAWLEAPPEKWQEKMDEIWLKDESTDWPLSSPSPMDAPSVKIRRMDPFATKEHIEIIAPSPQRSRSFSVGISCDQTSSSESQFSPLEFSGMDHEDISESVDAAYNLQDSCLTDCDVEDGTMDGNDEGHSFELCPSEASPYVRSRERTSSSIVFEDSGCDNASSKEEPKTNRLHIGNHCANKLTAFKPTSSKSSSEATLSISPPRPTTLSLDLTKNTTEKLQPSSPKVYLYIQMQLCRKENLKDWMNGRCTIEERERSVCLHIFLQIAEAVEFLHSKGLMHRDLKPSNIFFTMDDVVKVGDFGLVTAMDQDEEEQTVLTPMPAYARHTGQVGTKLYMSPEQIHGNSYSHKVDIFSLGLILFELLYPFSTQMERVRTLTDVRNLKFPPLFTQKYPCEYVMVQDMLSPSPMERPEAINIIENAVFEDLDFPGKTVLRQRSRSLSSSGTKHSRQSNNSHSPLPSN
The test is described as follows: Inhibition of PEK in human PC3 cell lysates at 30 uM using desthiobiotin-tagged ATP probe AX9989 followed by trypsinization by LC/MS analysis.

The target in test [4] is Microtubule-associated serine/threonine-protein kinase 3 (Homo sapiens, UniProt O60307). The test is described as follows: Inhibition of MAST3 in human PC3 cell lysates at 30 uM using desthiobiotin-tagged ATP probe AX9989 followed by trypsinization by LC/MS analysis.
Microtubule-associated serine/threonine-protein kinase 3, sequence (O60307 whole entry): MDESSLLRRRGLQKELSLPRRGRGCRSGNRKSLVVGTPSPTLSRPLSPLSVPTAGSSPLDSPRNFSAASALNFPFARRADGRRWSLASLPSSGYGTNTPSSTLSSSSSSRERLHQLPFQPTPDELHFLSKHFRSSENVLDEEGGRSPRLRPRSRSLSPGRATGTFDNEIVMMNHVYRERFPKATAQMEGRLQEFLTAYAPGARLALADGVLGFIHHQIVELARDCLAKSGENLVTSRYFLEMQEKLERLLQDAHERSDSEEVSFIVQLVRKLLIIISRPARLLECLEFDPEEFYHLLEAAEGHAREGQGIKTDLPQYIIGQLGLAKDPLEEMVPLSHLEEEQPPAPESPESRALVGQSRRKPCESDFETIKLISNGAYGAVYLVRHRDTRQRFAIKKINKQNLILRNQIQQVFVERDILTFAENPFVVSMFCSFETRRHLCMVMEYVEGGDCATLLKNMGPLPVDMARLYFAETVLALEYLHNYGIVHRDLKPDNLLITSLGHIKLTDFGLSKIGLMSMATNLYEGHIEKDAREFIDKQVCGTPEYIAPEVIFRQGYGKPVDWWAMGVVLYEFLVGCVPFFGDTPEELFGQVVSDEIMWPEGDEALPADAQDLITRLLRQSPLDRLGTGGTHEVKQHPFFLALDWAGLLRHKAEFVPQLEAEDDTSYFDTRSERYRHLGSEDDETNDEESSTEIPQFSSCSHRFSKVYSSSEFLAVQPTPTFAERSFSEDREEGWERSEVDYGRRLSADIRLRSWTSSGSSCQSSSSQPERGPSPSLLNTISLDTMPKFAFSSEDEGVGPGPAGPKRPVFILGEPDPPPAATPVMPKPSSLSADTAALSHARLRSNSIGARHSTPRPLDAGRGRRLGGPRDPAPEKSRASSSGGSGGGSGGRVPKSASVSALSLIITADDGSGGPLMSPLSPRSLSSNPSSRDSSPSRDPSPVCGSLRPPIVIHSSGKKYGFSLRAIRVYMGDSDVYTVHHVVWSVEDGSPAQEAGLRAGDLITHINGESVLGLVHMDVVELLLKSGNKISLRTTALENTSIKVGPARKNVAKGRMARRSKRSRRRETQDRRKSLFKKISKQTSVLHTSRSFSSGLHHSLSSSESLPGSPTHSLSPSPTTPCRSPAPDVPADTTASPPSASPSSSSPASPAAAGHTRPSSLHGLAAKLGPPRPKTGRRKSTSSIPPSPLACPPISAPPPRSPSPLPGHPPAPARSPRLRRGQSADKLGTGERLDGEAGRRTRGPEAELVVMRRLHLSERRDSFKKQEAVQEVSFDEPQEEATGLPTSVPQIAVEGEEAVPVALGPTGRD
For test [5], the target named is T2, Serine/threonine-protein kinase STK11 (Homo sapiens) (UniProt Q15831).
T2 sequence (whole entry): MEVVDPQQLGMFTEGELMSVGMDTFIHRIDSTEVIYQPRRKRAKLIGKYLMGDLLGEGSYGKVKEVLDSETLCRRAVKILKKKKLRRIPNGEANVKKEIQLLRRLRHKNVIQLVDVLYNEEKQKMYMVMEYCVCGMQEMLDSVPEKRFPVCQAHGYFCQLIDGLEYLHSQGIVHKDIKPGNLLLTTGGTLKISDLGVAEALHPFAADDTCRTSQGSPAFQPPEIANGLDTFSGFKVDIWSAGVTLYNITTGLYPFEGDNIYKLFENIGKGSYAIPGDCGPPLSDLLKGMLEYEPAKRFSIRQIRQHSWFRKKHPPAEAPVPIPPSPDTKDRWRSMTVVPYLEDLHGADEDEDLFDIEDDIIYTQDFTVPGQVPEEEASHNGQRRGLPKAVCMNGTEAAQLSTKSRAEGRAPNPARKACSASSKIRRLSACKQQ
The test is described as follows: Inhibition of LKB1 in human PC3 cell lysates at 30 uM using desthiobiotin-tagged ATP probe AX9989 followed by trypsinization by LC/MS analysis.

Cyclin-dependent kinase 10 (Homo sapiens), sequence (Q15131 whole entry): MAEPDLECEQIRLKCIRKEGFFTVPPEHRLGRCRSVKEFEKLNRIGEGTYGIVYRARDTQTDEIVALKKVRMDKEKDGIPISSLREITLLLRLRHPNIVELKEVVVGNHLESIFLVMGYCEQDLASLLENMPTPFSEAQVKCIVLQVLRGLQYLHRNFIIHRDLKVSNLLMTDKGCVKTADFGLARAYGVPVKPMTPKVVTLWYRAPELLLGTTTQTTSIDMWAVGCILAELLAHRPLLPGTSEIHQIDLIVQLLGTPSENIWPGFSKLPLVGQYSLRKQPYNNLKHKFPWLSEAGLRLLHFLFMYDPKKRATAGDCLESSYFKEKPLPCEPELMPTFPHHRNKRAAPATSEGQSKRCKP

As usually defined, the inhibition is the relative decrease from the control value, in per cent. For the compound `O[C@H]1CC[C@H](Nc2nc3ccccc3n3ccnc23)CC1`, the inhibition in test [1] is 79.8%; in test [2], 38.9%; in test [3], 65%; in test [4], less than 35%; in test [5], 45.6%.
On to `c1ccc(CNc2nc3ccccc3n3ccnc23)cc1`, for which the inhibition in test [1], in test [2], in test [3], in test [4] and in test [5] was less than 35% in each case.
Regarding `c1ccc2c(c1)nc(NC1CCCCC1)c1nccn12`, the inhibition in test [1] is 37.2%; in test [2], less than 35%; in test [3], less than 35%; in test [4], less than 35%; in test [5], less than 35%.
On to `c1ccc(CCNc2nc3ccccc3n3ccnc23)cc1`, for which the inhibition in test [1] was 35.7%; in test [2], less than 35%; in test [3], less than 35%; in test [4], less than 35%; in test [5], less than 35%.
